# Assay results: US11548871B2, “Triazole carbamate pyridyl sulfonamides as LPA receptor antagonists and uses thereof” (Gilead Sciences, Inc., priority 2019, dated 2023)
# pEC50: −log10 of the molar value.
# Target: human LPAR1 (Homo sapiens, UniProt Q92633)
# Assay: LPAR1 intracellular calcium mobilization assay (antagonist mode)
# Description: In vitro LPAR1 activity was measured in an intracellular calcium mobilization assay.
# Prior to testing cell media were aspirated from the cells and replaced with 20 μL Calcium Dye Loading Buffer (DiscoverX Calcium NoWash^PLUS Assay Kit cat #90-0091) and 2.5 mM Probenecid (Sigma Aldrich cat #P8761, prepared fresh) in HBSS/20 mM Hepes for 60 min at 37° C.
# For agonist dose curves, cells were removed from the incubator after dye loading and 10 μL HBSS/20 mM Hepes including 3× vehicle was added. Cells were incubated for 30 min at room temperature in the dark to equilibrate plate temperatures. An intermediate LPA dilution series was prepared in assay buffer to generate 4× stock. Calcium mobilization was monitored on a FLIPR Tetra (MDS, San Jose, Calif.) for 2 min and 10 μL 4×LPA in HBSS/20 mM Hepes was added to the cells 5 s into the assay.
# An intermediate antagonist dilution series was prepared as 3× samples in assay buffer. After dye loading, cells were removed from the incubator and 10 μL 3× antagonist was added. Cells were incubated for 30 min at room temperature in the dark to equilibrate plate temperatures. The final vehicle (DMSO) concentration was 1%. Compound antagonist activities was measured on a FLIPR Tetra. Calcium mobilization was monitored for 2 min and 10 μL EC80 agonist in HBSS/20 mM Hepes was added to the cells 5 s into the assay. Compound activity was analyzed using CBIS data analysis suite (ChemInnovation Software, San Diego, Calif.).
# Chain of human LPAR1 (Q92633 whole entry): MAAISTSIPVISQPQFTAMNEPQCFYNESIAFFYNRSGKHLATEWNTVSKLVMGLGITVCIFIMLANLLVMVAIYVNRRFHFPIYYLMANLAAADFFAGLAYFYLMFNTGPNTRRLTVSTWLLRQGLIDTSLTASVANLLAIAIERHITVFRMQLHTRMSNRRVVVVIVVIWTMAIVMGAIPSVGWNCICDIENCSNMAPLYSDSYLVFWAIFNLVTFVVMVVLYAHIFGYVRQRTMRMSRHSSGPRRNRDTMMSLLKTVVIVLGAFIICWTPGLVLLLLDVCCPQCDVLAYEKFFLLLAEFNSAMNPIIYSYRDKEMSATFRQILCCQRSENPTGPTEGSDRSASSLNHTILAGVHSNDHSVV
row,pEC50,Structure (SMILES)
1,6.66,"Cc1nc(-c2nnn(C)c2NC(=O)O[C@H](C)c2cccnc2Cl)ccc1NS(C)(=O)=O [Compound 68, (R)-1-(2-chloropyridin-3-yl)ethyl (1-methyl-4-(6-methyl-5-(methylsulfonamido)pyridin-2-yl)-1H-1,2,3-triazol-5-yl)carbamate]"
2,7.55,"C[C@@H](OC(=O)Nc1c(-c2ccc(NS(C)(=O)=O)cn2)nnn1C)c1cccc(F)c1 [Compound 95, (R)-1-(3-fluorophenyl)ethyl(1-methyl-4-(5-(methylsulfonamido)pyridin-2-yl)-1H-1,2,3-triazol-5-yl)carbamate]"
3,7.54,"Cc1nc(-c2nnn(C)c2NC(=O)O[C@@H](c2cccc(Cl)c2)C(F)F)ccc1NS(C)(=O)=O [Compound 62, (S)-1-(3-chlorophenyl)-2,2-difluoroethyl (1-methyl-4-(6-methyl-5-(methylsulfonamido)pyridin-2-yl)-1H-1,2,3-triazol-5-yl)carbamate]"
4,6.06,"Cc1nc(-c2nnn(C)c2NC(=O)OC(C)c2cccnc2C)ccc1NS(C)(=O)=O (centres unmarked) [Compound 81, 1-(2-methylpyridin-3-yl)ethyl (1-methyl-4-(6-methyl-5-(methylsulfonamido)pyridin-2-yl)-1H-1,2,3-triazol-5-yl)carbamate]"
5,5.42,"Cc1nc(-c2nnn(C)c2NC(=O)OC(C)c2conc2C)ccc1NS(C)(=O)=O (centres unmarked) [Compound 136, 1-(3-methylisoxazol-4-yl)ethyl (1-methyl-4-(6-methyl-5-(methylsulfonamido)pyridin-2-yl)-1H-1,2,3-triazol-5-yl)carbamate]"
6,7.08,"Cc1ncc(Cl)cc1[C@@H](C)OC(=O)Nc1c(-c2ccc(NS(C)(=O)=O)cn2)nnn1C [Compound 113, (R)-1-(5-chloro-2-methylpyridin-3-yl)ethyl (1-methyl-4-(5-(methylsulfonamido)pyridin-2-yl)-1H-1,2,3-triazol-5-yl)carbamate]"
7,6.78,"Cc1nc(-c2nnn(C)c2NC(=O)OCc2cc(F)ccc2Cl)ccc1NS(C)(=O)=O [Compound 38, 2-chloro-5-fluorobenzyl (1-methyl-4-(6-methyl-5-(methylsulfonamido)pyridin-2-yl)-1H-1,2,3-triazol-5-yl)carbamate]"
8,7.04,"Cc1nc(-c2nnn(C)c2NC(=O)OC(CCC2CC2)C(F)(F)F)ccc1NS(C)(=O)=O (centres unmarked) [Compound 46, 4-cyclopropyl-1,1,1-trifluorobutan-2-yl (1-methyl-4-(6-methyl-5-(methylsulfonamido)pyridin-2-yl)-1H-1,2,3-triazol-5-yl)carbamate]"
9,5.43,"Cc1nc(-c2nnn(C)c2NC(=O)OCCC(C)C)ccc1NS(C)(=O)=O [Compound 33, isopentyl (1-methyl-4-(6-methyl-5-(methylsulfonamido)pyridin-2-yl)-1H-1,2,3-triazol-5-yl)carbamate]"
10,7.35,"Cc1nc(-c2nnn(CC#N)c2NC(=O)O[C@H](C)c2ccccc2)ccc1NS(C)(=O)=O [Compound 99, (R)-1-phenylethyl(1-(cyanomethyl)-4-(6-methyl-5-(methylsulfonamido)pyridin-2-yl)-1H-1,2,3-triazol-5-yl)carbamate]"
11,5.77,"Cc1nc(-c2nnn(C)c2NC(=O)OCCC(C)(C)C)ccc1NS(C)(=O)=O [Compound 32, 3,3-dimethylbutyl (1-methyl-4-(6-methyl-5-(methylsulfonamido)pyridin-2-yl)-1H-1,2,3-triazol-5-yl)carbamate]"
12,6.17,"Cc1nc(-c2nnn(C)c2NC(=O)OC(C)c2ncccc2Cl)ccc1NS(C)(=O)=O (centres unmarked) [Compound 131, 1-(3-chloropyridin-2-yl)ethyl (1-methyl-4-(6-methyl-5-(methylsulfonamido)pyridin-2-yl)-1H-1,2,3-triazol-5-yl)carbamate]"
13,6.51,"Cc1nc(-c2nnn(C)c2NC(=O)O[C@H](C)c2cccc(F)c2F)ccc1NS(C)(=O)=O [Compound 87, (R)-1-(2,3-difluorophenyl)ethyl(1-methyl-4-(6-methyl-5-(methylsulfonamido)pyridin-2-yl)-1H-1,2,3-triazol-5-yl)carbamate]"
14,7.34,"Cc1ccccc1[C@@H](C)OC(=O)Nc1c(-c2ccc(NS(C)(=O)=O)c(C)n2)nnn1C [Compound 42, (R)-1-(o-tolyl)ethyl (1-methyl-4-(6-methyl-5-(methylsulfonamido)pyridin-2-yl)-1H-1,2,3-triazol-5-yl)carbamate]"
15,6.90,"CCc1nc(-c2nnn(C)c2NC(=O)O[C@H](C)c2cc(F)cnc2Cl)ccc1NS(C)(=O)=O [Compound 147, (R)-1-(2-chloro-5-fluoropyridin-3-yl)ethyl (4-(6-ethyl-5-(methylsulfonamido)pyridin-2-yl)-1-methyl-1H-1,2,3-triazol-5-yl)carbamate]"
16,7.64,"Cc1nc(-c2nnn(C)c2NC(=O)O[C@H](C)c2cscc2Cl)ccc1NS(C)(=O)=O [Compound 138, (R)-1-(4-chlorothiophen-3-yl)ethyl (1-methyl-4-(6-methyl-5-(methylsulfonamido)pyridin-2-yl)-1H-1,2,3-triazol-5-yl)carbamate]"

row,pEC50,Structure (SMILES)
1,7.15,"Cn1nnc(-c2ccc(NS(=O)(=O)CC#N)cn2)c1NC(=O)O[C@@H](c1ccccc1)C(F)F [Compound 13, (S)-2,2-difluoro-1-phenylethyl(4-(5-((cyanomethyl)sulfonamido)pyridin-2-yl)-1-methyl-1H-1,2,3-triazol-5-yl)carbamate]"
2,7.31,"Cc1nc(-c2nnn(C)c2NC(=O)O[C@@H](c2ccccc2)C(F)F)ccc1NS(C)(=O)=O [Compound 57, (S)-2,2-difluoro-1-phenylethyl (1-methyl-4-(6-methyl-5-(methylsulfonamido)pyridin-2-yl)-1H-1,2,3-triazol-5-yl)carbamate]"
3,6.57,"CC(C)NS(=O)(=O)Nc1ccc(-c2nnn(C)c2NC(=O)O[C@H](C)c2cccnc2Cl)nc1 [Compound 160, (R)-1-(2-chloropyridin-3-yl)ethyl (4-(5-((N-isopropylsulfamoyl)amino)pyridin-2-yl)-1-methyl-1H-1,2,3-triazol-5-yl)carbamate]"
4,5.99,"Cc1nc(-c2nnn(C)c2NC(=O)N[C@@H](c2ccccc2)C(F)F)ccc1NS(C)(=O)=O [Compound 65, (S)-N-(6-(5-(3-(2,2-difluoro-1-phenylethyl)ureido)-1-methyl-1H-1,2,3-triazol-4-yl)-2-methylpyridin-3-yl)methanesulfonamide]"
5,7.25,"Cc1nc(-c2nnn(C)c2NC(=O)O[C@H](C)c2ccccc2Cl)ccc1NS(=O)(=O)C1CC1 [Compound 103, (R)-1-(2-chloro-phenyl)ethyl(4-(5-(cyclopropane-sulfonamido)-6-methylpyridin-2-yl)-1-methyl-1H-1,2,3-triazol-5-yl)carbamate]"
6,6.23,"CCc1ncccc1[C@@H](C)OC(=O)Nc1c(-c2ccc(NS(C)(=O)=O)c(C)n2)nnn1C [Compound 151, (R)-1-(2-ethylpyridin-3-yl)ethyl (1-methyl-4-(6-methyl-5-(methylsulfonamido)pyridin-2-yl)-1H-1,2,3-triazol-5-yl)carbamate]"
7,6.18,"Cc1nc(-c2nnn(C)c2NC(=O)OCCCC(C)(C)C)ccc1NS(C)(=O)=O [Compound 30, 4,4-dimethylpentyl (1-methyl-4-(6-methyl-5-(methylsulfonamido)pyridin-2-yl)-1H-1,2,3-triazol-5-yl)carbamate]"
8,6.52,"C[C@@H](OC(=O)Nc1c(-c2ccc(NS(C)(=O)=O)c(C3CC3)n2)nnn1C)c1cccnc1Cl [Compound 149, (R)-1-(2-chloropyridin-3-yl)ethyl (4-(6-cyclopropyl-5-(methylsulfonamido)pyridin-2-yl)-1-methyl-1H-1,2,3-triazol-5-yl)carbamate]"
9,6.52,"Cc1nc(-c2nnn(C)c2NC(=O)O[C@H](C)c2scnc2Cl)ccc1NS(C)(=O)=O [Compound 140, (R)-1-(4-chlorothiazol-5-yl)ethyl (1-methyl-4-(6-methyl-5-(methylsulfonamido)pyridin-2-yl)-1H-1,2,3-triazol-5-yl)carbamate]"
10,7.30,"Cc1nc(-c2nnn(C)c2NC(=O)O[C@H](CF)c2ccccc2F)ccc1NS(C)(=O)=O [Compound 44, (S)-2-fluoro-1-(2-fluorophenyl)ethyl (1-methyl-4-(6-methyl-5-(methylsulfonamido)pyridin-2-yl)-1H-1,2,3-triazol-5-yl)carbamate]"
11,6.69,"Cc1nc(-c2nnn(C)c2NC(=O)O[C@H](CCl)c2ccccc2)ccc1NS(C)(=O)=O [Compound 49, (S)-2-chloro-1-phenylethyl (1-methyl-4-(6-methyl-5-(methylsulfonamido)pyridin-2-yl)-1H-1,2,3-triazol-5-yl)carbamate]"
12,7.47,"Cc1nc(-c2nnn(C)c2NC(=O)O[C@@H](c2cc(F)ccc2F)C(F)F)ccc1NS(C)(=O)=O [Compound 26, (S)-1-(2,5-difluorophenyl)-2,2-difluoroethyl (1-methyl-4-(6-methyl-5-(methylsulfonamido)pyridin-2-yl)-1H-1,2,3-triazol-5-yl)carbamate]"
13,7.24,"C[C@@H](OC(=O)Nc1c(-c2ccc(NS(C)(=O)=O)cn2)nnn1C)c1cnsc1Cl [Compound 118, (R)-1-(5-chloroisothiazol-4-yl)ethyl (1-methyl-4-(5-(methylsulfonamido)pyridin-2-yl)-1H-1,2,3-triazol-5-yl)carbamate]"
14,5.64,"Cc1ccncc1C(C)OC(=O)Nc1c(-c2ccc(NS(C)(=O)=O)c(C)n2)nnn1C (centres unmarked) [Compound 82, 1-(4-methylpyridin-3-yl)ethyl (1-methyl-4-(6-methyl-5-(methylsulfonamido)pyridin-2-yl)-1H-1,2,3-triazol-5-yl)carbamate]"
15,7.34,"Cn1nnc(-c2ccc(NS(C)(=O)=O)cn2)c1NC(=O)O[C@H](CF)c1ccccc1 [Compound 18, (S)-2-fluoro-1-phenylethyl (1-methyl-4-(5-(methylsulfonamido)pyridin-2-yl)-1H-1,2,3-triazol-5-yl)carbamate]"
16,7.24,"Cc1ccc(C)c([C@@H](C)OC(=O)Nc2c(-c3ccc(NS(C)(=O)=O)c(C)n3)nnn2C)c1 [Compound 27, (R)-1-(2,5-dimethylphenyl)ethyl (1-methyl-4-(6-methyl-5-(methylsulfonamido)pyridin-2-yl)-1H-1,2,3-triazol-5-yl)carbamate]"
